From US8519096B2, “Citrullinated peptides for diagnosing and prognosing rheumatoid arthritis” (Nestec S.A., priority 2009, dated 2013) come the findings set out here.

The assay has as its system IgG ACPAs. The experiment in a line: ACPA ELISA with anti-human IgG secondary antibody. The assay is classed as binding. The conditions noted are these: for IgG ACPA positive response (strong/moderate): Example 7, FIGS. 20-27. On the procedure:
The synthetic citrullnated peptides set forth in Example 6, which were designed from synovial proteins, were synthesized and evaluated for their ability to diagnose and/or prognose RA. […] The peptides were then tested for IgG ACPA dose-response in samples of synovial fluid taken from both healthy patients and patients with RA.

Non-standard residues stand in square brackets, D forms with d. No end group written: not given here. *: point of attachment. Biotin = O=C1N[C@H]2[C@H](CS[C@H]2CCCCC(=O)*)N1; Cit = NC(=O)NCCC[C@H](N)C(=O)O

In the case of “Biotin-GGGP[Cit]VVE[Cit]HQSAGGGTK[Cit]GHAKSRPV[Cit]GIHT [[Arg^25]Cit-α32]”, the “sensitivity for autoantibodies of the IgG class (in words)” value is on record as “particularly high sensitivity”. Besides, the “EC50 of the INOVA CCP IgG assay relative to EC50 of the peptide assay” value (FIG. 4, IgG ACPAs) turned out to be 143 fold. Regarding “T2α1-3: synthetic citrullinated peptide derived from collagen (Coll.T2α1), Table 8 (Biotin-KWGKTVIEY[Cit]SQKTSRLYRSQKTS[Cit]LG-NH2; SMILES CC[C@H](C)[C@H](NC(=O)[C@@H](NC(=O)[C@@H](NC(=O)[C@H](CCCCN)NC(=O)CNC(=O)[C@H](Cc1c[nH]c2ccccc12)NC(=O)[C@H](CCCCN)NC(=O)CCCC[C@@H]1SC[C@@H]2NC(=O)N[C@@H]21)[C@@H](C)O)C(C)C)C(=O)N[C@@H](CCC(=O)O)C(=O)N[C@@H](Cc1ccc(O)cc1)C(=O)N[C@@H](CCCNC(N)=O)C(=O)N[C@@H](CO)C(=O)N[C@@H](CCC(N)=O)C(=O)N[C@@H](CCCCN)C(=O)N[C@H](C(=O)N[C@@H](CO)C(=O)N[C@@H](CCCNC(=N)N)C(=O)N[C@@H](CC(C)C)C(=O)N[C@@H](Cc1ccc(O)cc1)C(=O)N[C@@H](CCCNC(=N)N)C(=O)N[C@@H](CO)C(=O)N[C@@H](CCC(N)=O)C(=O)N[C@@H](CCCCN)C(=O)N[C@H](C(=O)N[C@@H](CO)C(=O)N[C@@H](CCCNC(N)=O)C(=O)N[C@@H](CC(C)C)C(=O)NCC(N)=O)[C@@H](C)O)[C@@H](C)O)”, the “IgG ACPA positive response (strong/moderate)” value is listed as “moderate”.

Regarding “H2A-1: synthetic citrullinated peptide derived from histone (H2A), Table 8 (Biotin-GLELAGNAA[Cit]DNKKTRIIP[Cit]HLQG-NH2; SMILES CC[C@H](C)[C@H](NC(=O)[C@H](CCCNC(=N)N)NC(=O)[C@@H](NC(=O)[C@H](CCCCN)NC(=O)[C@H](CCCCN)NC(=O)[C@H](CC(N)=O)NC(=O)[C@H](CC(=O)O)NC(=O)[C@H](CCCNC(N)=O)NC(=O)[C@H](C)NC(=O)[C@H](C)NC(=O)[C@H](CC(N)=O)NC(=O)CNC(=O)[C@H](C)NC(=O)[C@H](CC(C)C)NC(=O)[C@H](CCC(=O)O)NC(=O)[C@H](CC(C)C)NC(=O)CNC(=O)CCCC[C@@H]1SC[C@@H]2NC(=O)N[C@@H]21)[C@@H](C)O)C(=O)N[C@H](C(=O)N1CCC[C@H]1C(=O)N[C@@H](CCCNC(N)=O)C(=O)N[C@@H](Cc1c[nH]cn1)C(=O)N[C@@H](CC(C)C)C(=O)N[C@@H](CCC(N)=O)C(=O)NCC(N)=O)[C@@H](C)CC)”, the “IgG ACPA positive response (strong/moderate)” value is “moderate”.

In the case of “FIB-A6: 25-mer citrullinated peptide: fibrinogen alpha chain amino acids 451-465 linked to 509-517, Cys461 to Ser (Biotin-GSGSTTTTR[Cit]SSSKTVFRH[Cit]HPDEA-NH2; SMILES CC(C)[C@H](NC(=O)[C@@H](NC(=O)[C@H](CCCCN)NC(=O)[C@H](CO)NC(=O)[C@H](CO)NC(=O)[C@H](CO)NC(=O)[C@H](CCCNC(N)=O)NC(=O)[C@H](CCCNC(=N)N)NC(=O)[C@@H](NC(=O)[C@@H](NC(=O)[C@@H](NC(=O)[C@@H](NC(=O)[C@H](CO)NC(=O)CNC(=O)[C@H](CO)NC(=O)CNC(=O)CCCC[C@@H]1SC[C@@H]2NC(=O)N[C@@H]21)[C@@H](C)O)[C@@H](C)O)[C@@H](C)O)[C@@H](C)O)[C@@H](C)O)C(=O)N[C@@H](Cc1ccccc1)C(=O)N[C@@H](CCCNC(=N)N)C(=O)N[C@@H](Cc1c[nH]cn1)C(=O)N[C@@H](CCCNC(N)=O)C(=O)N[C@@H](Cc1c[nH]cn1)C(=O)N1CCC[C@H]1C(=O)N[C@@H](CC(=O)O)C(=O)N[C@@H](CCC(=O)O)C(=O)N[C@@H](C)C(N)=O)”, the “IgG ACPA positive response (strong/moderate)” value is reported as “moderate”.

With “Bip-3: synthetic citrullinated peptide derived from BiP, Table 8 (Biotin-GEDFSETLT[Cit]DLF[Cit]STMKPIVLVGGST[Cit]R-NH2; SMILES CC[C@H](C)[C@H](NC(=O)[C@@H]1CCCN1C(=O)[C@H](CCCCN)NC(=O)[C@H](CCSC)NC(=O)[C@@H](NC(=O)[C@H](CO)NC(=O)[C@H](CCCNC(N)=O)NC(=O)[C@H](Cc1ccccc1)NC(=O)[C@H](CC(C)C)NC(=O)[C@H](CC(=O)O)NC(=O)[C@H](CCCNC(N)=O)NC(=O)[C@@H](NC(=O)[C@H](CC(C)C)NC(=O)[C@@H](NC(=O)[C@H](CCC(=O)O)NC(=O)[C@H](CO)NC(=O)[C@H](Cc1ccccc1)NC(=O)[C@H](CC(=O)O)NC(=O)[C@H](CCC(=O)O)NC(=O)CNC(=O)CCCC[C@@H]1SC[C@@H]2NC(=O)N[C@@H]21)[C@@H](C)O)[C@@H](C)O)[C@@H](C)O)C(=O)N[C@H](C(=O)N[C@@H](CC(C)C)C(=O)N[C@H](C(=O)NCC(=O)NCC(=O)N[C@@H](CO)C(=O)N[C@H](C(=O)N[C@@H](CCCNC(N)=O)C(=O)N[C@@H](CCCNC(=N)N)C(N)=O)[C@@H](C)O)C(C)C)C(C)C)”, the “IgG ACPA positive response (strong/moderate)” value is “moderate”.

“PL-SCRB: synthetic citrullinated peptide derived from PL scramblase, Table 8 (Biotin-TL[Cit]IIDNMGQEVITLE[Cit]PLRSITLERPL[Cit]SS-NH2; SMILES CC[C@H](C)[C@H](NC(=O)[C@H](CO)NC(=O)[C@H](CCCNC(=N)N)NC(=O)[C@H](CC(C)C)NC(=O)[C@@H]1CCCN1C(=O)[C@H](CCCNC(N)=O)NC(=O)[C@H](CCC(=O)O)NC(=O)[C@H](CC(C)C)NC(=O)[C@@H](NC(=O)[C@@H](NC(=O)[C@@H](NC(=O)[C@H](CCC(=O)O)NC(=O)[C@H](CCC(N)=O)NC(=O)CNC(=O)[C@H](CCSC)NC(=O)[C@H](CC(N)=O)NC(=O)[C@H](CC(=O)O)NC(=O)[C@@H](NC(=O)[C@@H](NC(=O)[C@H](CCCNC(N)=O)NC(=O)[C@H](CC(C)C)NC(=O)[C@@H](NC(=O)CCCC[C@@H]1SC[C@@H]2NC(=O)N[C@@H]21)[C@@H](C)O)[C@@H](C)CC)[C@@H](C)CC)C(C)C)[C@@H](C)CC)[C@@H](C)O)C(=O)N[C@H](C(=O)N[C@@H](CC(C)C)C(=O)N[C@@H](CCC(=O)O)C(=O)N[C@@H](CCCNC(=N)N)C(=O)N1CCC[C@H]1C(=O)N[C@@H](CC(C)C)C(=O)N[C@@H](CCCNC(N)=O)C(=O)N[C@@H](CO)C(=O)N[C@@H](CO)C(N)=O)[C@@H](C)O)”: the “IgG ACPA positive response (strong/moderate)” value is on record as “moderate”. Same read-out and setting: under “FBNT-6: synthetic citrullinated peptide derived from fibronectin, Table 8 (Biotin-RIAP[Cit]ATITGPRATITGY[Cit]YRI[Cit]HHPEHG-NH2; SMILES CC[C@H](C)[C@H](NC(=O)[C@H](CCCNC(=N)N)NC(=O)CCCC[C@@H]1SC[C@@H]2NC(=O)N[C@@H]21)C(=O)N[C@@H](C)C(=O)N1CCC[C@H]1C(=O)N[C@@H](CCCNC(N)=O)C(=O)N[C@@H](C)C(=O)N[C@H](C(=O)N[C@H](C(=O)N[C@H](C(=O)NCC(=O)N1CCC[C@H]1C(=O)N[C@@H](CCCNC(=N)N)C(=O)N[C@@H](C)C(=O)N[C@H](C(=O)N[C@H](C(=O)N[C@H](C(=O)NCC(=O)N[C@@H](Cc1ccc(O)cc1)C(=O)N[C@@H](CCCNC(N)=O)C(=O)N[C@@H](Cc1ccc(O)cc1)C(=O)N[C@@H](CCCNC(=N)N)C(=O)N[C@H](C(=O)N[C@@H](CCCNC(N)=O)C(=O)N[C@@H](Cc1c[nH]cn1)C(=O)N[C@@H](Cc1c[nH]cn1)C(=O)N1CCC[C@H]1C(=O)N[C@@H](CCC(=O)O)C(=O)N[C@@H](Cc1c[nH]cn1)C(=O)NCC(N)=O)[C@@H](C)CC)[C@@H](C)O)[C@@H](C)CC)[C@@H](C)O)[C@@H](C)O)[C@@H](C)CC)[C@@H](C)O)” stands “strong”; under “Bip-2: synthetic citrullinated peptide derived from BiP, Table 8 (Biotin-DVRKDN[Cit]AVQKLR[Cit]EVEKAK[Cit]ALSSQHQ-NH2; SMILES CC(C)C[C@H](NC(=O)[C@H](C)NC(=O)[C@H](CCCNC(N)=O)NC(=O)[C@H](CCCCN)NC(=O)[C@H](C)NC(=O)[C@H](CCCCN)NC(=O)[C@H](CCC(=O)O)NC(=O)[C@@H](NC(=O)[C@H](CCC(=O)O)NC(=O)[C@H](CCCNC(N)=O)NC(=O)[C@H](CCCNC(=N)N)NC(=O)[C@H](CC(C)C)NC(=O)[C@H](CCCCN)NC(=O)[C@H](CCC(N)=O)NC(=O)[C@@H](NC(=O)[C@H](C)NC(=O)[C@H](CCCNC(N)=O)NC(=O)[C@H](CC(N)=O)NC(=O)[C@H](CC(=O)O)NC(=O)[C@H](CCCCN)NC(=O)[C@H](CCCNC(=N)N)NC(=O)[C@@H](NC(=O)[C@H](CC(=O)O)NC(=O)CCCC[C@@H]1SC[C@@H]2NC(=O)N[C@@H]21)C(C)C)C(C)C)C(C)C)C(=O)N[C@@H](CO)C(=O)N[C@@H](CO)C(=O)N[C@@H](CCC(N)=O)C(=O)N[C@@H](Cc1c[nH]cn1)C(=O)N[C@@H](CCC(N)=O)C(N)=O)”, “moderate”. The same measure, in the same setting: under “H3-2: synthetic citrullinated peptide derived from histone (H3), Table 8 (Biotin-DFKTDL[Cit]FQSSAVMARRIRGE[Cit]AG-NH2; SMILES CC[C@H](C)[C@H](NC(=O)[C@H](CCCNC(=N)N)NC(=O)[C@H](CCCNC(=N)N)NC(=O)[C@H](C)NC(=O)[C@H](CCSC)NC(=O)[C@@H](NC(=O)[C@H](C)NC(=O)[C@H](CO)NC(=O)[C@H](CO)NC(=O)[C@H](CCC(N)=O)NC(=O)[C@H](Cc1ccccc1)NC(=O)[C@H](CCCNC(N)=O)NC(=O)[C@H](CC(C)C)NC(=O)[C@H](CC(=O)O)NC(=O)[C@@H](NC(=O)[C@H](CCCCN)NC(=O)[C@H](Cc1ccccc1)NC(=O)[C@H](CC(=O)O)NC(=O)CCCC[C@@H]1SC[C@@H]2NC(=O)N[C@@H]21)[C@@H](C)O)C(C)C)C(=O)N[C@@H](CCCNC(=N)N)C(=O)NCC(=O)N[C@@H](CCC(=O)O)C(=O)N[C@@H](CCCNC(N)=O)C(=O)N[C@@H](C)C(=O)NCC(N)=O)” stands “moderate”.
